Experimental findings from US9233965B2, “3,4-dihydropyrrolo[1,2-A]pyrazine-2,8(1H)-dicarboxamide derivatives, preparation thereof and therapeutic use thereof for diseases involving casein kinase 1 epsilon and/or casein kinase 1 delta” (SANOFI, priority 2010, dated 2016) are described below.

The term IC50 denotes the concentration at which inhibition is half-maximal. Read a high IC50 as a need for much substance.

In the assay the target is casein kinase 1 epsilon (CK1 epsilon) (Homo sapiens (Human), UniProt P49674). Description: Test A: inhibitory activity on CK1 epsilon, casein phosphorylation assay on ATP-33P filter plate. In kind it is biochemical. As to conditions: IC50 values or IC50 ranges (result of several experiments), ATP 10 μM final. On the procedure: The capacity of the compounds of the invention to inhibit the phosphorylation of casein by casein kinase 1 epsilon and/or delta may be evaluated according to the procedures described in document US 2005/0 131 012.
casein kinase 1 epsilon (CK1 epsilon), sequence (P49674 whole entry): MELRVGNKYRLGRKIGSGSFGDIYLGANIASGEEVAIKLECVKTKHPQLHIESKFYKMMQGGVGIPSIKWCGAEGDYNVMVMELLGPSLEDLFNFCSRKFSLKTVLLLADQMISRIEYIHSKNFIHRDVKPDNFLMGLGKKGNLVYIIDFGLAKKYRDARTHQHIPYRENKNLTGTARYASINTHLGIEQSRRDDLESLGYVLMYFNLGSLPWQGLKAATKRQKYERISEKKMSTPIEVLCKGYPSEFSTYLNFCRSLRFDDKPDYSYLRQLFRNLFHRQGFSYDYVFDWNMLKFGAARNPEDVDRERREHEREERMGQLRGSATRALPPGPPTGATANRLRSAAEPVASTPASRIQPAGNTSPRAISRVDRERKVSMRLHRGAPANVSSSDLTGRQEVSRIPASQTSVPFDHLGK
Test A: Inhibitory Activity on CK1 Epsilon Measured by Assay on an ATP-^33P Filter Plate
The effect of the compounds on inhibition of the phosphorylation of casein by the enzyme casein kinase 1 epsilon (CK1 epsilon) is measured, using a casein assay via filtration of ATP-^33P in vitro.
Casein kinase 1 epsilon (0.58 mg/ml) is obtained via fermentation and purification processes performed according to methods that are well known to those skilled in the art, or may also be obtained from Invitrogen Corporation™ (human CK1 epsilon).
The compounds are tested at five different concentrations so as to generate IC50 values, i.e. the concentration at which a compound is capable of inhibiting the enzymatic activity by 50%, or alternatively the percentage of inhibition at a concentration of 10 micromolar.
“U”-bottomed Falcon plates are prepared by placing 5 μL of solutions of the compounds according to the invention at concentrations of 10, 1, 0.1, 0.01 or 0.001 μM in different wells. The solutions of the compounds according to the invention at these various concentrations are prepared by diluting in a test buffer (Tris 50 mM pH 7.5, MgCl2 […], DTT 2 mM and EGTA 1 mM) a stock solution in DMSO at a concentration of 10 mM. Next, 5 μL of dephosphorylated casein are added to a final concentration of 0.2 μg/μL, 20 μL of CK1 epsilon to a final concentration of 3 ng/μL, and 20 μL of ATP-^33P to a final concentration of 0.02 μCi/μL mixed with cold ATP (10 μM final—approximately 2×10^6 CPM per well). The final total test volume per well is equal to 50 μL.
The “U”-bottomed Falcon® test plate mentioned above is vortexed, and then incubated at room temperature for 2 hours. After 2 hours the reaction is stopped by adding an ice-cold solution of 65 μL of cold ATP (2 mM) prepared in test buffer.
100 μL of the reaction mixture are then transferred from the “U”-bottomed Falcon® plate into Millipore® MAPH filter plates, preimpregnated with 25 μL of ice-cold 100% TCA.
The Millipore MAPH filter plates are agitated gently and are left to stand at room temperature for at least 30 minutes to precipitate the proteins.
After 30 minutes, the filter plates are sequentially washed and filtered with 2×150 μL of 20% TCA, 2×150 μL of 10% TCA and 2×150 μL of 5% TCA (6 washes in total per plate/900 μL per well).
The plates are left to dry overnight at room temperature. Next, 40 μL of Microscint-20 Packard® scintillation liquid are added per well and the plates are closed in a leaktight manner. The radiation emitted by each well is then measured for 2 minutes in a TopCount NXT Packard® scintillation counter, in which the values of CPM/well are measured.
The percentage inhibition of the capacity of the enzyme to phosphorylate the substrate (casein) is determined for each concentration of test compound. These inhibition data expressed as percentages are used to calculate the IC50 value for each compound compared with the controls.
The kinetic studies determined the KM value for ATP as being 21 μM in this test system.
Table 2 below gives the IC50 values or the IC50 inhibition ranges (result of several experiments) for the phosphorylation of Casein Kinase 1 Epsilon for a number of compounds according to the invention.
`CC(C)(C)NC(=O)N1CCn2c(c(C(N)=O)c(-c3ccc(N4CCOCC4)cc3)c2C2CC2)C1` [Compound 30, N^2-tert-butyl-6-cyclo-propyl-7-[4-(morpholin-4-yl)phenyl]-3,4-dihydropyrrolo[1,2-a]pyrazine-2,8(1H)-dicarboxamide] showed an IC50 of 331 nM.

In turn, `CC(C)(C)NC(=O)N1CCn2c(c(C(N)=O)c(-c3ccc(-n4cccn4)cc3)c2C2CC2)C1` [Compound 31, N^2-tert-butyl-6-cyclo-propyl-7-[4-(1H-pyrazol-1-yl)phenyl]-3,4-dihydropyrrolo[1,2-a]pyrazine-2,8(1H)-dicarboxamide] came in with an IC50 of 5 to 29 nM.

`COc1cccc(-c2c(C(N)=O)c3n(c2C2CC2)CCN(C(=O)NC(C)(C)C)C3)c1` [Compound 32, N^2-tert-butyl-6-cyclo-propyl-7-(3-methoxyphenyl)-3,4-dihydropyrrolo[1,2-a]pyrazine-2,8(1H)-dicarboxamide] had an IC50 of 1 to 7 nM.

With `CC(C)(C)NC(=O)N1CCn2c(c(C(N)=O)c(-c3cccc(OCC4CC4)c3)c2C2CC2)C1` [Compound 33, N^2-tert-butyl-6-cyclo-propyl-7-[3-(cyclo-propylmethoxy)phenyl]-3,4-dihydropyrrolo[1,2-a]pyrazine-2,8(1H)-dicarboxamide], the IC50 was determined as 847 nM.

The compound `CC(C)(C)NC(=O)N1CCn2c(c(C(N)=O)c(-c3cccc(OC(F)(F)F)c3)c2C2CC2)C1` [Compound 35, N^2-tert-butyl-6-cyclo-propyl-7-[3-(trifluoromethoxy)phenyl]-3,4-dihydropyrrolo[1,2-a]pyrazine-2,8(1H)-dicarboxamide] showed an IC50 of 25 nM. This IC50 is about 34-fold lower than that of the compound before.

Compound `CC(C)(C)NC(=O)N1CCn2c(c(C(N)=O)c(-c3ccc(OCC4CC4)cc3)c2C2CC2)C1` [Compound 37, N^2-tert-butyl-6-cyclo-propyl-7-[4-(cyclo-propylmethoxy)phenyl]-3,4-dihydropyrrolo[1,2-a]pyrazine-2,8(1H)-dicarboxamide] displayed an IC50 of 62 nM.

For the compound `CCCCOc1ccc(-c2c(C(N)=O)c3n(c2C2CC2)CCN(C(=O)NC(C)(C)C)C3)cc1` [Compound 38, 7-(4-butoxyphenyl)-N^2-tert-butyl-6-cyclo-propyl-3,4-dihydropyrrolo[1,2-a]pyrazine-2,8(1H)-dicarboxamide], the IC50 turned out to be 152 nM.

Compound `CC(C)(C)NC(=O)N1CCn2c(c(C(N)=O)c(-c3ccc(OCc4ccc(F)cc4)cc3)c2C2CC2)C1` [Compound 41, N^2-tert-butyl-6-cyclo-propyl-7-{4-[(4-fluorobenzyl)oxy]phenyl}-3,4-dihydropyrrolo[1,2-a]pyrazine-2,8(1H)-dicarboxamide] had an IC50 of 42 nM.

Regarding `CC(C)(C)NC(=O)N1CCn2c(c(C(N)=O)c(-c3ccc(OCc4ccc(F)cc4)c(Cl)c3)c2C2CC2)C1` [Compound 42, N^2-tert-butyl-7-{3-chloro-4-[(4-fluorobenzyl)oxy]phenyl}-6-cyclo-propyl-3,4-dihydropyrrolo[1,2-a]pyrazine-2,8(1H)-dicarboxamide], the IC50 came out at 16 nM.

The compound `CC(C)(C)NC(=O)N1CCn2c(c(C(N)=O)c(-c3ccc(OCC#N)cc3)c2C2CC2)C1` [Compound 43, N^2-tert-butyl-7-[4-(cyanomethoxy)phenyl]-6-cyclo-propyl-3,4-dihydropyrrolo[1,2-a]pyrazine-2,8(1H)-dicarboxamide] gave a half-maximal inhibitory concentration (IC50) of 24 nM. Compared with the last compound, the IC50 is about 1.5-fold higher.

Turning to `CC(C)(C)NC(=O)N1CCn2c(c(C(N)=O)c(-c3ccc(OC(F)(F)F)cc3)c2C2CC2)C1` [Compound 44, N^2-tert-butyl-6-cyclo-propyl-7-[4-(trifluoromethoxy)phenyl]-3,4-dihydropyrrolo[1,2-a]pyrazine-2,8(1H)-dicarboxamide], half-maximal inhibition (IC50) required 33 nM. The IC50 values of the last two compounds are within 1.5-fold of each other.

In the case of `CC(C)(C)NC(=O)N1CCn2c(c(C(N)=O)c(-c3ccccc3F)c2C2CC2)C1` [Compound 45, N^2-tert-butyl-6-cyclo-propyl-7-(2-fluorophenyl)-3,4-dihydropyrrolo[1,2-a]pyrazine-2,8(1H)-dicarboxamide], half-maximal inhibition (IC50) required 12 nM.

For `CC(C)(C)NC(=O)N1CCn2c(c(C(N)=O)c(-c3cccc(F)c3)c2C2CC2)C1` [Compound 46, N^2-tert-butyl-6-cyclo-propyl-7-(3-fluorophenyl)-3,4-dihydropyrrolo[1,2-a]pyrazine-2,8(1H)-dicarboxamide], the IC50 lay in the range of 5 to 11 nM.

`CSc1ccc(-c2c(C(N)=O)c3n(c2C2CC2)CCN(C(=O)NC(C)(C)C)C3)cc1` [Compound 48, N^2-tert-butyl-6-cyclo-propyl-7-[4-(methylsulfanyl)phenyl]-3,4-dihydropyrrolo[1,2-a]pyrazine-2,8(1H)-dicarboxamide] registered an IC50 of 1 to 2 nM.

Turning to `NC(=O)c1c(-c2ccccc2)c(C2CC2)n2c1CN(C(=O)NC1CCCCC1)CC2` [Compound 49, N^2-cyclo-hexyl-6-cyclo-propyl-7-phenyl-3,4-dihydropyrrolo[1,2-a]pyrazine-2,8(1H)-dicarboxamide], the IC50 lay in the range of 17 to 28 nM.

Compound `NC(=O)c1c(-c2ccccc2)c(C2CC2)n2c1CN(C(=O)NCC1CCCCC1)CC2` [Compound 50, N^2-(cyclo-hexylmethyl)-6-cyclo-propyl-7-phenyl-3,4-dihydropyrrolo[1,2-a]pyrazine-2,8(1H)-dicarboxamide] showed an IC50 of 25 nM.

For the compound `CC(C)(C)CC(C)(C)NC(=O)N1CCn2c(c(C(N)=O)c(-c3ccccc3)c2C2CC2)C1` [Compound 52, 6-cyclo-propyl-7-phenyl-N^2-(2,4,4-trimethylpentan-2-yl)-3,4-dihydropyrrolo[1,2-a]pyrazine-2,8(1H)-dicarboxamide], the IC50 stood at 45 nM.

Regarding `CC(C)CNC(=O)N1CCn2c(Cl)c(-c3ccccc3)c(C(N)=O)c2C1` [Compound 59, 6-chloro-N^2-iso-butyl-7-phenyl-3,4-dihydropyrrolo[1,2-a]pyrazine-2,8(1H)-dicarboxamide], the IC50 lay within 8 to 13 nM.

The compound `COc1cccc(-c2c(C(N)=O)c3n(c2Cl)CCN(C(=O)NC(C)(C)C)C3)c1` [Compound 62, tert-butyl-6-chloro-7-(3-methoxyphenyl)-3,4-dihydropyrrolo[1,2-a]pyrazine-2,8(1H)-dicarboxamide] showed an IC50 of 1 to 4 nM.

For the compound `CC(C)(C)CCNC(=O)N1CCn2c(Cl)c(-c3ccccc3)c(C(N)=O)c2C1` [Compound 72, 6-chloro-N^2-(3,3-dimethylbutyl)-7-phenyl-3,4-dihydropyrrolo[1,2-a]pyrazine-2,8(1H)-dicarboxamide], the IC50 lay in the range of 1 to 17 nM.

`NC(=O)c1c(-c2cccc(F)c2)c(Cl)n2c1CN(C(=O)NCCCC(F)(F)F)CC2` [Compound 81, 6-chloro-7-(3-fluorophenyl)-N^2-(4,4,4-trifluorobutyl)-3,4-dihydropyrrolo[1,2-a]pyrazine-2,8(1H)-dicarboxamide] came in with an IC50 of 2 to 16 nM.

The compound `CC1(O)CCC(NC(=O)N2CCn3c(Cl)c(-c4cccc(F)c4)c(C(N)=O)c3C2)CC1` (stereo not drawn) [Compound 84, trans-6-chloro-7-(3-fluorophenyl)-N^2-(4-hydroxy-4-methyl-cyclo-hexyl)-3,4-dihydropyrrolo[1,2-a]pyrazine-2,8(1H)-dicarboxamide] returned an IC50 of 1 nM.

On to `NC(=O)c1c(-c2cccc(F)c2)c(Cl)n2c1CN(C(=O)NC1CCC(O)(C(F)(F)F)CC1)CC2` (stereo not drawn) [Compound 85, trans-6-chloro-7-(3-fluorophenyl)-N^2-(4-hydroxy-4-trifluoromethyl-cyclo-hexyl)-3,4-dihydropyrrolo[1,2-a]pyrazine-2,8(1H)-dicarboxamide], for which the IC50 was found to be 2 nM.

`CON=C1CCC(NC(=O)N2CCn3c(Cl)c(-c4cccc(F)c4)c(C(N)=O)c3C2)CC1` (stereo not drawn) [Compound 86, trans-6-chloro-7-(3-fluorophenyl)-N^2-(4-methoxyimino-cyclohexyl)-3,4-dihydropyrrolo[1,2-a]pyrazine-2,8(1H)-dicarboxamide] yielded an IC50 of under 1 nM.
